From EP1655296A1, “Thrombin inhibitors” (Graffinity Pharmaceuticals AG, priority 2004, dated 2006)

Target: thrombin (Homo sapiens, UniProt P00734)
Experiment: Ki determinations thrombin (fluorogenic substrate Tosyl-GPR-AMC)
Format: biochemical
Conditions: 20 °C; Tosyl-GPR-AMC 20 µM; thrombin concentration of 100 pM; HBS pH 7.4
Protocol: The Ki determinations are carried out at 20 °C with the fluorogenic substrate Tosyl-GPR-AMC (Bachem, Heidelberg, Germany; λexc = 370 nm, λem = 450 nm) at a thrombin concentration of 100 pM in HBS pH 7.4. The substrate is added to a final concentration of 20 µM in a total assay volume of 100 µl. The enzymatic reaction is started by addition of substrate. The emission at 450 nm is monitored in 1 minute intervals for 10 minutes using a polarstar reader (BMG Laboratories, Offenburg, Germany). Initial velocities of the control and the inhibited reactions (vo and vi) are estimated in FU/min at different compound concentrations. The inhibition constants are calculated using the Michaelis-Menten equation for competitive inhibition.

For Fc1c(NCCC2CCCCN2)ncc(Cl)c1CCNCc1n[nH]c2ccc(Cl)cc12 (stereo not shown) [example 1], the Ki was < 1000 nM.
